Where two headings read alike, the source gives them in different places.
System: RSV A2
Assay: RSV antiviral cytopathic effect (CPE) assay
Assay type: cell-based
Conditions: human respiratory syncytial virus, HEp-2, 120 h, HEp2 cells infected with RSV A2 (moi ~0.01), 5 days, MTT readout
Experimental: Compounds of the invention were tested for their antiviral activity against respiratory syncytial virus. Cytopathic effect (CPE) assays were performed essentially as described in the literature (see for example Watanabe et al, 1994, J. Virological Methods, 48:257). Serial dilutions of the test compounds were made in 96 well plates. HEp2 cells (1.0×10^4 cells/well) were infected with RSV at a low multiplicity of infection (e.g. RSV A2 at an moi of ˜0.01) and added to plates to assess antiviral activity. Uninfected HEp2 cells were used to assess compound cytotoxicity. Assays were incubated for 5 days at 37° C. in a 5% CO2 atmosphere. The extent of CPE was determined via metabolism of the vital dye 3-(4,5-dimethylthiaxol-2-yl)-2,5-diphenyltetrazolium bromide (MTT). MTT (1 mg/ml) was added to each well and plates incubated for 2 hours incubation at 37° C. Wells were aspirated, iso-propanol (200 μL) was added and absorbance values read at 540/650 nm. Compound concentrations that inhibited CPE by 50% (EC50) and developed cytotoxicity (CC50) were calculated using non-linear regression analysis.
Representative mean EC50 values obtained are also provided. In the inventors' experience, replicate EC50 values usually fall within three standard deviations of the mean.

[1] = read-out: Activity Range (RSV A2 EC50)
[2] = mean EC50, read-out: RSV A2 EC50

Row | EC50 [1] [nM] | EC50 [2] [nM] | SMILES
1 | 100 to 499 | 160 | Cc1nocc1C(=O)N1CCN2C(=O)c3cc(-c4cccnc4)cn3CC12c1ccc(CO)cc1 (stereo not drawn) [Compound 95, 10a-[4-(hydroxymethyl)phenyl]-1-[(3-methyl-1,2-oxazol-4-yl)carbonyl]-7-(pyridin-3-yl)-2,3,10,10a-tetrahydro-1H,5H-imidazo[1,2-a]pyrrolo[1,2-d]pyrazin-5-one]
2 | 100 to 499 | 150 | Cc1nocc1C(=O)N1CCN2C(=O)c3ccc(-c4cnn(C)c4)n3CC12c1ccc(F)cc1 (stereo not drawn) [Compound 96]
3 | 100 to 499 | 460 | Cc1nocc1C(=O)N1CCN2C(=O)c3ccc(-c4cccnc4)n3CC12c1ccc(F)cc1 (stereo not drawn) [Compound 97]
4 | 50 to 99 | 69 | Cc1nocc1C(=O)N1CCN2C(=O)c3cc(-c4cccnc4)cn3CC12c1ccc(F)cc1 (stereo not drawn) [Compound 98]
5 | 100 to 499 | 190 | Cc1nocc1C(=O)N1CCN2C(=O)c3ccc(-c4ccncc4)n3CC12c1ccc(F)cc1 (stereo not drawn) [Compound 99]
6 | 500 to 10000 | 8000 | COc1ccc(C23Cn4cc(-c5ccc(C(=O)O)cc5)cc4C(=O)N2CCN3C(=O)c2conc2C)cc1 (stereo not drawn) [Compound 100]
7 | 500 to 10000 | 730 | Cc1nocc1C(=O)N1CCN2C(=O)c3cccn3CC12c1cccnc1 (stereo not drawn) [Compound 101, 1-[(3-methyl-1,2-oxazol-4-yl)carbonyl]-10a-(pyridin-3-yl)-2,3,10,10a-tetrahydro-1H,5H-imidazo[1,2-a]pyrrolo[1,2-d]pyrazin-5-one]
8 | 100 to 499 | 380 | Cc1nocc1C(=O)N1CCN2C(=O)c3cccn3CC12c1ccccn1 (stereo not drawn) [Compound 103, 1-[(3-methyl-1,2-oxazol-4-yl)carbonyl]-10a-(pyridin-2-yl)-2,3,10,10a-tetrahydro-1H,5H-imidazo[1,2-a]pyrrolo[1,2-d]pyrazin-5-one]
9 | < 49 | 27 | Cc1ccc(C23Cn4cccc4C(=O)N2CCN3C(=O)c2conc2C)nc1 (stereo not drawn) [Compound 104]
10 | 100 to 499 | 130 | Cc1nocc1C(=O)N1CCN2C(=O)c3cccn3CC12c1ccc(C(F)(F)F)nc1 (stereo not drawn) [Compound 105]
11 | < 49 | 4.1 | COc1ccc(C23Cn4c(C#N)ccc4C(=O)N2CCN3C(=O)c2conc2C)cc1 (stereo not drawn) [Compound 106, 10a-(4-methoxyphenyl)-1-[(3-methyl-1,2-oxazol-4-yl)carbonyl]-5-oxo-2,3,10,10a-tetrahydro-1H,5H-imidazo[1,2-a]pyrrolo[1,2-d]pyrazine-8-carbonitrile]
12 | < 49 | 14 | COc1ccc(C23Cn4c(C)ccc4C(=O)N2CCN3C(=O)c2conc2C)cc1 (stereo not drawn) [Compound 107, 10a-(4-methoxyphenyl)-8-methyl-1-[(3-methyl-1,2-oxazol-4-yl)carbonyl]-2,3,10,10a-tetrahydro-1H,5H-imidazo[1,2-a]pyrrolo[1,2-d]pyrazin-5-one]
13 | < 49 | 17 | C#Cc1ccc2n1CC1(c3ccc(OC)cc3)N(C(=O)c3conc3C)CCN1C2=O (stereo not drawn) [Compound 108, 8-ethynyl-10a-(4-methoxyphenyl)-1-[(3-methyl-1,2-oxazol-4-yl)carbonyl]-2,3,10,10a-tetrahydro-1H,5H-imidazo[1,2-a]pyrrolo[1,2-d]pyrazin-5-one]
14 | 100 to 499 | 300 | Cc1nocc1C(=O)N1CCN2C(=O)c3cccn3CC12c1ccc(OCCO)cc1 (stereo not drawn) [Compound 109, 10a-[4-(2-hydroxyethoxy)phenyl]-1-[(3-methyl-1,2-oxazol-4-yl)carbonyl]-2,3,10,10a-tetrahydro-1H,5H-imidazo[1,2-a]pyrrolo[1,2-d]pyrazin-5-one]
15 | 500 to 10000 | 680 | Cc1nocc1C(=O)N1CCN2C(=O)c3cccn3CC12c1ccc(OCCN2CCOCC2)cc1 (stereo not drawn) [Compound 110, 1-[(3-methyl-1,2-oxazol-4-yl)carbonyl]-10a-{4-[2-(morpholin-4-yl)ethoxy]phenyl}-2,3,10,10a-tetrahydro-1H,5H-imidazo[1,2-a]pyrrolo[1,2-d]pyrazin-5-one]
16 | > 10000 | 16000 | COc1ccc(C23Cn4cc(N)cc4C(=O)N2CCN3C(=O)c2conc2C)cc1 (stereo not drawn) [Compound 111, 7-amino-10a-(4-methoxyphenyl)-1-[(3-methyl-1,2-oxazol-4-yl)carbonyl]-2,3,10,10a-tetrahydro-1H,5H-imidazo[1,2-a]pyrrolo[1,2-d]pyrazin-5-one]
17 | > 10000 | – | COc1ccc(C23Cn4cc(NC5CCCCC5)cc4C(=O)N2CCN3C(=O)c2conc2C)cc1 (stereo not drawn) [Compound 112, 7-(cyclohexylamino)-10a-(4-methoxyphenyl)-1-[(3-methyl-1,2-oxazol-4-yl)carbonyl]-2,3,10,10a-tetrahydro-1H,5H-imidazo[1,2-a]pyrrolo[1,2-d]pyrazin-5-one]
18 | 100 to 499 | 320 | COc1ccc(C23Cn4cc(-n5ccnn5)cc4C(=O)N2CCN3C(=O)c2conc2C)cc1 (stereo not drawn) [Compound 113, 10a-(4-methoxyphenyl)-1-[(3-methyl-1,2-oxazol-4-yl)carbonyl]-7-(1H-1,2,3-triazol-1-yl)-2,3,10,10a-tetrahydro-1H,5H-imidazo[1,2-a]pyrrolo[1,2-d]pyrazin-5-one]
19 | < 49 | 39 | Cc1cnc(C23Cn4cccc4C(=O)N2CCN3C(=O)c2conc2C)cn1 (stereo not drawn) [Compound 114]
20 | 100 to 499 | 230 | COc1ccc(C23Cn4cccc4C(=O)N2CCN3C(=O)c2conc2C)nc1 (stereo not drawn) [Compound 115]

Row | EC50 [1] [nM] | EC50 [2] [nM] | SMILES
21 | 50 to 99 | 59 | Cc1nocc1C(=O)N1CCN2C(=O)c3cccn3CC12c1ccc(C(F)(F)F)cn1 (stereo not drawn) [Compound 116, 1-[(3-methyl-1,2-oxazol-4-yl)carbonyl]-10a-[5-(trifluoromethyl)pyridin-2-yl]-2,3,10,10a-tetrahydro-1H,5H-imidazo[1,2-a]pyrrolo[1,2-d]pyrazin-5-one]
22 | 500 to 10000 | 880 | Cc1ccc(C23Cn4cc(Br)cc4C(=O)N2CCN3C(=O)c2conc2C)nc1 (stereo not drawn) [Compound 117]
23 | 100 to 499 | 320 | Cc1nocc1C(=O)N1CCN2C(=O)c3cccn3CC12c1cnn(C)c1 (stereo not drawn) [Compound 118]
24 | 50 to 99 | 96 | Cc1cc(C23Cn4cccc4C(=O)N2CCN3C(=O)c2conc2C)ccn1 (stereo not drawn) [Compound 119]
25 | 50 to 99 | 87 | Cc1ccc(C23Cn4cc(-c5cccnc5)cc4C(=O)N2CCN3C(=O)c2conc2C)nc1 (stereo not drawn) [Compound 120]
26 | < 49 | 42 | Cc1cnc(C23Cn4cc(-c5cccnc5)cc4C(=O)N2CCN3C(=O)c2conc2C)cn1 (stereo not drawn) [Compound 121, 1-[(3-methyl-1,2-oxazol-4-yl)carbonyl]-10a-(5-methylpyrazin-2-yl)-7-(pyridin-3-yl)-2,3,10,10a-tetrahydro-1H,5H-imidazo[1,2-a]pyrrolo[1,2-d]pyrazin-5-one]
27 | 100 to 499 | 430 | Cc1nocc1C(=O)N1CCN2C(=O)c3cccn3CC12c1ccncc1 (stereo not drawn) [Compound 122, 1-[(3-methyl-1,2-oxazol-4-yl)carbonyl]-10a-(pyridin-4-yl)-2,3,10,10a-tetrahydro-1H,5H-imidazo[1,2-a]pyrrolo[1,2-d]pyrazin-5-one]
28 | < 49 | 7.8 | Cc1ccc(C23Cn4c(C#N)ccc4C(=O)N2CCN3C(=O)c2conc2C)cn1 (stereo not drawn) [Compound 126]
29 | < 49 | 27 | Cc1ccc(C23Cn4cc(-c5ccccn5)cc4C(=O)N2CCN3C(=O)c2conc2C)cn1 (stereo not drawn) [Compound 127]
30 | 50 to 99 | 64 | COc1ccc(C23Cn4cc(-c5ccccn5)cc4C(=O)N2CCN3C(=O)c2conc2C)cn1 (stereo not drawn) [Compound 128]
31 | 100 to 499 | 130 | Cc1nocc1C(=O)N1CCN2C(=O)c3cc(-c4ccccn4)nn3CC12c1ccc(F)cc1 (stereo not drawn) [Compound 129]
32 | > 10000 | – | COc1ccc(C23Cn4cccc4C(=O)N2CCN3C(=O)NCc2ccco2)cc1 (stereo not drawn) [Compound 130]
33 | > 10000 | – | COc1ccc(C23Cn4cccc4C(=O)N2CCN3S(=O)(=O)c2ccccc2)cc1 (stereo not drawn) [Compound 131]
34 | < 49 | 31 | Cc1ccc(C23Cn4cc(-c5cnn(C)c5)cc4C(=O)N2CCN3C(=O)c2conc2C)cn1 (stereo not drawn) [Compound 132]
35 | < 49 | 7 | COc1ccc(C23Cn4c(C#N)ccc4C(=O)N2CCN3C(=O)c2conc2C)cn1 (stereo not drawn) [Compound 133]
36 | < 49 | 31 | Cc1ccc(C23Cn4cc(-c5cnn(C)c5)cc4C(=O)N2CCN3C(=O)c2conc2C)nc1 (stereo not drawn) [Compound 134]
37 | < 49 | 9.1 | Cc1ccc(C23Cn4cc(-c5ccncc5)cc4C(=O)N2CCN3C(=O)c2conc2C)cn1 (stereo not drawn) [Compound 135]
38 | 500 to 10000 | 890 | COc1ccc(C23Cn4cccc4C(=O)N2CCN3C(=O)c2nonc2C)cc1 (stereo not drawn) [Compound 136]
39 | 500 to 10000 | 6600 | COc1ccc(C23Cn4cccc4C(=O)N2CCN3C(=O)c2ccsc2)cc1 (stereo not drawn) [Compound 137]
40 | 500 to 10000 | 4200 | COc1ccc(C23Cn4nc(-c5ccccn5)cc4C(=O)N2CCN3C(=O)c2conc2C)cc1 (stereo not drawn) [Compound 138]

Row | SMILES | EC50 [1] [nM] | EC50 [2] [nM]
41 | O=C1c2cccn2CC2(c3cccnc3)NCCN12 (stereo not drawn) [Compound 102, 10a-(pyridin-3-yl)-2,3,10,10a-tetrahydro-1H,5H-imidazo[1,2-a]pyrrolo[1,2-d]pyrazin-5-one] | > 10000 | –

— patent publication US8604034B2, “Substituted imidazo[1,2-α]pyrrolo[1,2-d]pyrazines for treating respiratory syncytial virus (RSV) infections” (Biota Scientific Management Pty Ltd., priority 2010, dated 2013)
